# Measurements as given in patent US9279010B2, “Treatment of inflammatory bowel diseases with mammal beta defensins” (Defensin Therapeutics ApS, priority 2008, dated 2016).
# Marks after values point to notes of the source that are not given here.
# What was measured:
# [1] = system: Dextran Sodium Sulphate (DSS)-induced colitis; test: 10-Day DSS-induced colitis model in the mouse (Example 2): Disease Activity Index and colon histology score; format: in vivo, mouse (male C57BL/6); design: key to DAI score: DAI score from stool, bleeding, weight loss; daily maximum 12; conditions: for DAI score: 1 mg/kg p.o. daily
# From the text: The aim of the following study was to determine the anti-inflammatory activity of human beta defensin 2 in an acute (10-days) model of inflammatory bowel disease (colitis) induced by oral dextran sodium sulphate (DSS) administration in the mouse.
# Animals were divided into 5 experimental groups.
# Colitis was induced in mice by supplementing their drinking water with DSS 2% for 7 days.
# On Day 1 all mice were weighed and marked according to their experimental groups. The drinking bottle of each cage was filled with the DSS solution, making sure all bottle lids were mounted properly and that none were congested.
# On Day 3 any remaining solution in the bottles was emptied and refilled with fresh DSS solution. This procedure was repeated again on Day 5.
# On Day 8 any remaining solution was discarded and replaced with autoclaved water.
# Animals were sacrificed 2 days later on Day 10.
# Daily clinical assessment of DSS-treated animals was carried out, with the calculation of a validated clinical Disease Activity Index (DAI) ranging from 0 to 4 according to the following parameters: stool consistency, presence or absence of rectal bleeding and weight loss:
# Bodyweight loss was calculated as the percent difference between the original bodyweight (Day 1) and the actual bodyweight on each experimental day (2-10).
# The appearance of diarrhoea is defined as mucus/faecal material adherent to anal fur. Rectal bleeding is defined as diarrhoea containing visible blood/mucus or gross rectal bleeding. The maximum score of the DAI each day is 12.
# Their colons were removed and their length and weight measured after exclusion of the caecum.
# Two sections (proximal and distal) of colon were taken from each animal and preserved in neutral buffered formalin for subsequent histological analysis (haematoxylin and eosin staining) according to the following scoring system:
# Two sections (proximal and distal) of colon were taken from each animal, processed for histological analysis (haematoxylin and eosin staining) and scored by a blind observer according to the histological scoring system described above.
# (§1) The statistical significance of the results was evaluated using the statistics program Graphpad Instat 3. The difference between groups for disease activity index and histological score was evaluated by Kruskal-Wallis test for unpaired data plus post-test Dunn to allow for multiple comparisons. A value of p<0.05 was taken as significant.
# [2] = system: Dextran Sodium Sulphate (DSS)-induced colitis; test: 10-Day DSS-induced colitis model in the mouse (Example 3): Disease Activity Index and colon histology score; format: in vivo
# Protocol: Example 3 was carried out essentially as described in Example 2. The differences are indicated below.
# Animals were divided into 9 experimental groups. […]
# Methylprednisolone was given orally at a dose of 1 mg/kg (group H) and 10 mg/kg (group J) in a dosing volume of 5 ml/kg body weight, once daily for 10 consecutive days.
# Two sections (proximal and distal) of colon were taken from each animal, processed for histological analysis (haematoxylin and eosin staining), and scored by a blind observer according to the scoring system described above.
# as §1, with “data+post-test of” for “data plus post-test”, “Dunn” for “Dunn to allow”, “significant. In the tables above, significant differences versus the corresponding control (vehicle) group are denoted as: *p<0.05, **p<0.01, ***p<0.001.” for “significant.”
# TNF-α = test: Determination of TNF-alpha concentration in colonic tissue samples by ELISA (Example 2); format: in vivo, mouse (male C57BL/6); conditions: 1 mg/kg p.o. daily for 10 days
# Protocol: (§2) An additional sample of colon was obtained from each animal and homogenised in PBS (100 mg tissue/ml PBS) containing 1% bovine serum albumin (BSA) and a protease inhibitor cocktail (1 ml/20 g tissue). The homogenate was then be centrifuged at 1400 rpm for 10 min and the supernatant stored at −20° C. for subsequent determination of TNF-α concentration by specific enzyme immunoassay (ELISA).
# […]
smiles,measurement,setting,value
C[C@H]1C[C@@H]2[C@H]([C@@H](O)C[C@@]3(C)[C@H]2CC[C@]3(O)C(=O)COC(=O)CCC(=O)O)[C@@]2(C)C=CC(=O)C=C12 [Methylprednisolone 21-hemisuccinate],Histology Score Distal Colon,[1]; 1 mg/kg p.o. daily for 10 days,3.70
same,Histology Score Proximal Colon,[1]; 1 mg/kg p.o. daily for 10 days,2.80*
same,DAI score,[1]; Day 1,0.00
same,DAI score,[1]; Day 2,0.10
same,DAI score,[1]; Day 3,0.00
same,DAI score,[1]; Day 4,2.60
same,DAI score,[1]; Day 5,2.50
same,DAI score,[1]; Day 6,2.60
same,DAI score,[1]; Day 7,3.10
same,DAI score,[1]; Day 8,2.50*
same,DAI score,[1]; Day 9,3.80*
same,DAI score,[1]; Day 10,4.90**
same,Histology Score Distal Colon,[2]; 1 mg/kg p.o. once daily,3.00***
same,Histology Score Proximal Colon,[2]; 1 mg/kg p.o. once daily,1.40
same,DAI score,"[2]; 1 mg/kg p.o. once daily, Day 1",0.00
same,DAI score,"[2]; 1 mg/kg p.o. once daily, Day 2",0.50
same,DAI score,"[2]; 1 mg/kg p.o. once daily, Day 3",0.50
same,DAI score,"[2]; 1 mg/kg p.o. once daily, Day 4",0.40
same,DAI score,"[2]; 1 mg/kg p.o. once daily, Day 5",1.10
same,DAI score,"[2]; 1 mg/kg p.o. once daily, Day 6",3.80
same,DAI score,"[2]; 1 mg/kg p.o. once daily, Day 7",5.90
same,DAI score,"[2]; 1 mg/kg p.o. once daily, Day 8",6.40
same,DAI score,"[2]; 1 mg/kg p.o. once daily, Day 9",5.60*
same,DAI score,"[2]; 1 mg/kg p.o. once daily, Day 10",5.60*
same,Histology Score Distal Colon,[2]; 10 mg/kg p.o. once daily,2.70***
same,Histology Score Proximal Colon,[2]; 10 mg/kg p.o. once daily,1.40
same,DAI score,"[2]; 10 mg/kg p.o. once daily, Day 1",0.00
same,DAI score,"[2]; 10 mg/kg p.o. once daily, Day 2",0.30
same,DAI score,"[2]; 10 mg/kg p.o. once daily, Day 3",0.70
same,DAI score,"[2]; 10 mg/kg p.o. once daily, Day 4",0.80
same,DAI score,"[2]; 10 mg/kg p.o. once daily, Day 5",1.30
same,DAI score,"[2]; 10 mg/kg p.o. once daily, Day 6",2.00
same,DAI score,"[2]; 10 mg/kg p.o. once daily, Day 7",3.20**
same,DAI score,"[2]; 10 mg/kg p.o. once daily, Day 8",4.80**
same,DAI score,"[2]; 10 mg/kg p.o. once daily, Day 9",5.20*
same,DAI score,"[2]; 10 mg/kg p.o. once daily, Day 10",4.00***
same,Colon TNF-α concentration,TNF-α,1833 pg/g tissue
